Laboratory results published in patent publication US20240400554A1, “MONOACYLGLYCEROL LIPASE (MAGL) INHIBITORS FOR THE TREATMENT OF PAIN AND RELATED MEDICAL DISORDERS” (Humanwell Pharmaceutical US, Inc., priority 2023, published 2024).

Tests used:
[1] = target: T1, human recombinant MAGL (monoacylglycerol lipase) (Homo sapiens, UniProt Q99685); assay: In vitro MAGL enzyme inhibition assay (Cayman Monoacylglycerol Lipase Inhibitor Screening Assay, 4-nitrophenylacetate hydrolysis); format: biochemical; details: 4-nitrophenylacetate substrate, 15 min preincubation, absorbance 405-415 nm
T1 construct: purchased Cayman Chemical Item No. 705192
T1 sequence (Q99685 1-303): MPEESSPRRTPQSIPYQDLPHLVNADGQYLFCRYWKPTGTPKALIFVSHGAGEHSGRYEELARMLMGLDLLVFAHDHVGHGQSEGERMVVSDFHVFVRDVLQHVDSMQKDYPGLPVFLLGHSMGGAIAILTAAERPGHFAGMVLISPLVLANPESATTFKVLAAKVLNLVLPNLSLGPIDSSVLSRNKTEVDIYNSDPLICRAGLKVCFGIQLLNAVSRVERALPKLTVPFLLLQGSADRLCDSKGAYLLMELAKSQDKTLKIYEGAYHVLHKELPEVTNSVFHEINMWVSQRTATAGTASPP
Protocol: Monoacylglycerol Lipase Inhibitor Screening Assay provides a convenient method for screening human MAGL inhibitors.
Dilute 3 ml of MAGL Assay Buffer (10×) concentrate with 27 ml of ultrapure water. This final 1× Assay Buffer (10 mM Tris-HCl, pH 7.2, containing 1 mM EDTA) should be used in the assay and for the dilution of MAGL enzyme, substrate, and MAGL inhibitor. The 1× Assay Buffer is stable for at least six months if stored at −20° C.
The vial contains 0.5 ml of 17 mM ethanolic solution of 4-nitrophenylacetate. Mix 150 μL of this solution with 450 μl of 1× Assay Buffer prior to testing. This is enough substrate to assay 50 wells. Dilute additional substrate if using the entire plate.
This vial contains 100 μl of a solution of human recombinant MAGL (monoacylglycerol lipase). The thawed enzyme should be stored on ice. Dilute 30 μl of enzyme with 570 μl of 1×MAGL Assay Buffer. This is enough enzyme to assay 50 wells. Dilute additional enzyme if using the entire plate. The diluted enzyme is stable for four hours on ice.
This vial contains 20 nmol of inhibitor. Resuspend in 125 μl of DMSO, then add 125 μl of 1× Assay Buffer and vortex to make an 80 μM stock.
1). 100% Initial Activity Wells—add 150 μl of 1× Assay Buffer, 10 μl of MAGL enzyme, and 10 μl of solvent (same solvent used to dissolve the inhibitor) to three wells.
2). Background Wells—add 160 μl of 1× Assay Buffer and 10 μl of solvent (same solvent used to dissolve the inhibitor) to three wells.
3). Inhibitor/Positive Control Wells—add 150 μl of 1× Assay Buffer, 10 μl of MAGL enzyme, and 10 μl of inhibitor* or positive control inhibitor to the inhibitor wells.
4). Mix the contents of the wells by pipetting gently up and down and incubate for 15 minutes at room temperature. The incubation time for different inhibitors may vary and will need to be optimized by the user.
5). Initiate the reactions by adding 10 μl of MAGL Substrate to all the wells being used. Carefully shake the 96-well plate for 10 seconds to mix and cover with the plate cover. Incubate for ten minutes at room temperature.
6). […] (Tecan Spark 10M Multimode Plate Reader)
1). Determine the average absorbance of each sample.
2). Subtract the average absorbance of the background wells from the average absorbance of the 100% initial activity and the inhibitor wells.
3). Determine the percent inhibition or percent activity for each inhibitor using one of the following equations: […]

[2] = tested on: 2% formalin model in SD rats; assay: Formalin-induced pain model; format: in vivo; details: 3 mg/kg p.o.; for inhibition in vivo at 3 mg/kg: Rattus norvegicus, po, 1 h, movements (lifts and licks) 0-60 min after formalin, read-out: MPE % (Maximum Possible Effect)
Protocol: A diluted formalin solution is injected subcutaneously into the hind paw of rats using a microsyringe, creating a continuous noxious stimulus that induces spontaneous pain behaviors in the animals. The experiment can record the number of lifts and licks of the rat's foot through an autonomous movement analyzer to assess the degree of pain. This experiment uses a 2% formalin model in SD rats and tests the analgesic activity of compounds by oral administration. After injecting 2% formalin, the number of movements (lifts and licks of the injected foot) from 0-60 min after injecting the formalin solution is recorded and analyzed.
The Maximum Possible Effect (MPE %) is calculated as a percentage:
Note: (1) MPE % for each group is calculated with sham group MPE=100% and vehicle group MPE=0% as standards. (2) Movement counts of the sham group are subtracted to exclude the impact of background noise on the experiment. (2) “Sham” represents the average value of the sham group; “Vehicle-Sham” represents the average value of the vehicle group minus the sham group.
Results are presented as mean values with standard error. Data from each group are analyzed and graphed using GraphPad Prism 8 software. Statistical analysis is conducted using one-way ANOVA to determine statistical differences between groups, with t-tests used for comparisons between two groups. A p-value <0.05 is considered statistically significant.

SMILES	IC50 [1] [nM]	Experimental Results (analgesic activity in the formalin model) [2]	inhibition in vivo at 3 mg/kg [2] [%]
O=C(OC(CO)C(F)(F)F)N1CCC(c2cc3n(n2)-c2ccc(F)cc2CC3)CC1 (stereo not drawn) [Compound 2, 1,1,1-trifluoro-3-hydroxypropan-2-yl 4-(7-fluoro-4,5-dihydropyrazolo[1,5-a]quinolin-2-yl)piperidine-1-carboxylate]	16	effective	45
N#Cc1c(C2CCN(C(=O)OC(C(F)(F)F)C(F)(F)F)CC2)nn2c1CCc1cc(F)cnc1-2 [Compound 18, 1,1,1,3,3,3-hexafluoropropan-2-yl 4-(3-cyano-7-fluoro-4,5-dihydropyrazolo[1,5-a][1,8]naphthyridin-2-yl)piperidine-1-carboxylate]	78.3	–	–
O=C(OC(CO)C(F)(F)F)N1CC2C(C1)C2c1cc2n(n1)-c1ccc(F)cc1CC2 (stereo not drawn) [Compound 12, 1,1,1-trifluoro-3-hydroxypropan-2-yl 6-(7-fluoro-4,5-dihydropyrazolo[1,5-a]quinolin-2-yl)-3-azabicyclo[3.1.0]hexane-3-carboxylate]	–	effective	64
Cc1c(C2CCN(C(=O)OC(C(F)(F)F)C(F)(F)F)CC2)nn2c1CCc1cc(F)cnc1-2 [Compound 17, 1,1,1,3,3,3-hexafluoropropan-2-yl 4-(7-fluoro-3-methyl-4,5-dihydropyrazolo[1,5-a][1,8]naphthyridin-2-yl)piperidine-1-carboxylate]	126	–	–
Cc1c(C2CCN(C(=O)OC(CO)C(F)(F)F)CC2)nn2c1CCc1cc(F)ccc1-2 (stereo not drawn) [Compound 6, 1,1,1-trifluoro-3-hydroxypropan-2-yl 4-(7-fluoro-3-methyl-4,5-dihydropyrazolo[1,5-a]quinolin-2-yl)piperidine-1-carboxylate]	16.7	effective	44
O=C(OC(CO)C(F)(F)F)N1CCC(c2nn3c(c2Br)CCc2cc(F)ccc2-3)CC1 (stereo not drawn) [Compound 5, 1,1,1-trifluoro-3-hydroxypropan-2-yl 4-(3-bromo-7-fluoro-4,5-dihydropyrazolo[1,5-a]quinolin-2-yl)piperidine-1-carboxylate]	37.1	effective	44
O=C(OC(CO)C(F)(F)F)N1CCC(c2nn3c(c2F)CCc2cc(F)ccc2-3)CC1 (stereo not drawn) [Compound 3, 1,1,1-trifluoro-3-hydroxypropan-2-yl 4-(3,7-difluoro-4,5-dihydropyrazolo[1,5-a]quinolin-2-yl)piperidine-1-carboxylate]	–	effective	61
O=C(OC(CO)C(F)(F)F)N1CCC(c2nn3c(c2C(F)(F)F)CCc2cc(F)ccc2-3)CC1 (stereo not drawn) [Compound 7, 1,1,1-trifluoro-3-hydroxypropan-2-yl 4-(7-fluoro-3-(trifluoromethyl)-4,5-dihydropyrazolo[1,5-a]quinolin-2-yl)piperidine-1-carboxylate]	89.8	effective	56
O=C(OC(C(F)(F)F)C(F)(F)F)N1CCC(c2cc3n(n2)-c2ccc(F)cc2CC3)CC1 [Compound 1, 1,1,1,3,3,3-hexafluoropropan-2-yl 4-(7-fluoro-4,5-dihydropyrazolo[1,5-a]quinolin-2-yl)piperidine-1-carboxylate]	< 0.1	effective	68
O=C(OC(C(F)(F)F)C(F)(F)F)N1CCC(c2nc3n(n2)-c2ccc(F)cc2CC3)CC1 [Compound 24, 1,1,1,3,3,3-hexafluoropropan-2-yl 4-(7-fluoro-4,5-dihydro-[1,2,4]triazolo[1,5-a]quinolin-2-yl)piperidine-1-carboxylate]	–	effective	50
O=C(OC(C(F)(F)F)C(F)(F)F)N1CCN(Cc2ccc(C(F)(F)F)cc2N2CCCC2)CC1 [ABX-1431, reference compound]	–	effective	33
O=C(OC(CO)C(F)(F)F)N1CCC(c2nn3c(c2Cl)CCc2cc(F)ccc2-3)CC1 (stereo not drawn) [Compound 4, 1,1,1-trifluoro-3-hydroxypropan-2-yl 4-(3-chloro-7-fluoro-4,5-dihydropyrazolo[1,5-a]quinolin-2-yl)piperidine-1-carboxylate]	–	effective	51

Now from value to compound, other results behind:

IC50 [1] [nM]	SMILES	Experimental Results (analgesic activity in the formalin model) [2]	inhibition in vivo at 3 mg/kg [2] [%]
13.1	O=C(OC(C(F)(F)F)C(F)(F)F)N1CCN(c2cc3n(n2)-c2ccc(F)cc2CC3)CC1 [Compound 35, 1,1,1,3,3,3-hexafluoropropan-2-yl 4-(7-fluoro-4,5-dihydropyrazolo[1,5-a]quinolin-2-yl)piperazine-1-carboxylate]	–	–
152	CC(C)c1c(C2CCN(C(=O)OC(C(F)(F)F)C(F)(F)F)CC2)nn2c1CCc1cc(F)cnc1-2 [Compound 21, 1,1,1,3,3,3-hexafluoropropan-2-yl 4-(7-fluoro-3-isopropyl-4,5-dihydropyrazolo[1,5-a][1,8]naphthyridin-2-yl)piperidine-1-carboxylate]	–	–
18.8	O=C(OC(CO)C(F)(F)F)N1CCC(c2nn3c(c2C2CC2)CCc2cc(F)ccc2-3)CC1 (stereo not drawn) [Compound 40, 1,1,1-trifluoro-3-hydroxypropan-2-yl 4-(3-cyclopropyl-7-fluoro-4,5-dihydropyrazolo[1,5-a]quinolin-2-yl)piperidine-1-carboxylate]	effective	41
32.7	O=C(OC(CO)C(F)(F)F)N1CCC(c2nc3n(c2Br)-c2ncc(F)cc2CC3)CC1 (stereo not drawn) [Compound 31, 1,1,1-trifluoro-3-hydroxypropan-2-yl 4-(9-bromo-3-fluoro-5,6-dihydroimidazo[1,2-a][1,8]naphthyridin-8-yl)piperidine-1-carboxylate]	–	–
25.1	O=C(OC(CO)C(F)(F)F)N1CCC(c2nc3n(c2Br)-c2ccc(F)cc2CC3)CC1 (stereo not drawn) [Compound 28, 1,1,1-trifluoro-3-hydroxypropan-2-yl 4-(1-bromo-7-fluoro-4,5-dihydroimidazo[1,2-a]quinolin-2-yl)piperidine-1-carboxylate]	–	–
12.5	CC(C)c1c(C2CCN(C(=O)OC(C(F)(F)F)C(F)(F)F)CC2)nn2c1ccc1cc(F)cnc12 [Compound 34, 1,1,1,3,3,3-hexafluoropropan-2-yl 4-(7-fluoro-3-isopropylpyrazolo[1,5-a][1,8]naphthyridin-2-yl)piperidine-1-carboxylate]	–	–
83.4	O=C(OC(CO)C(F)(F)F)N1CCC(c2cn3c(n2)CCc2cc(F)ccc2-3)CC1 (stereo not drawn) [Compound 26, 1,1,1-trifluoro-3-hydroxypropan-2-yl 4-(7-fluoro-4,5-dihydroimidazo[1,2-a]quinolin-2-yl)piperidine-1-carboxylate]	–	–
